IC50 data for 18 compounds are collected here from US10508109B2 (priority 2015, dated 2019).

Each structure is given as a SMILES string. Counter-ions that a name gives are not always drawn. Like-named read-outs stand apart in the source and are kept apart here.

For one assay, the system named is A549. Briefly: Cell-based assay, anti-proliferative activity (Cell Counting Kit-8, 72 hours). Conditions: Homo sapiens, read-out: IC50 (μM) A549. As for the experimental part:
100 micro-L of cell suspension was seeded onto 96-well microtiter plate (ViewPlate-96FTC, PerkinElmer). […] Cellular growth was determined using Cell Counting Kit-8 (DOJINDO) at 72 hours after the exposure of the candidate inhibitors. […] Accurate IC50 values were calculated as described previously.
On the technique in general: Formazan colour is commonly taken as a measure of viable cells.

In the next assay the test system is HFL1. The assay is described as above. Conditions: Homo sapiens, read-out: IC50 (μM) HFL1. As for the experimental part:
(§1) Active candidate inhibitors against SUV39H2 were evaluated for their target-specific cytotoxicity using A549, HCT-116, HFL1, CCD-18Co and PC14. 100 micro-L of cell suspension was seeded onto 96-well microtiter plate (ViewPlate-96FTC, PerkinElmer). The initial cell concentration of A549, HCT-116, HFL1, CCD-18Co and PC14 were 3,000 cells/well, 2,000 cells/well and 2,500 cells/well, respectively. Cellular growth was determined using Cell Counting Kit-8 (DOJINDO) at 72 hours after the exposure of the candidate inhibitors. IC50 was used as an indicator of the anti-proliferative activity of the inhibitors, and calculated by serial dilution method (0, 1.5625, 3.125, 6.25, 12.5, 25, 50, and 100 micro-M). Accurate IC50 values were calculated as described previously.

A further assay has as its system CCD-18Co. Described as above. Conditions: Homo sapiens, read-out: IC50 (μM) CCD-18Co. As for the experimental part:
as §1

In the next assay the test system is HCT-116. The assay is described as above. Conditions: Homo sapiens, read-out: IC50 (μM) HCT-116. As for the experimental part:
as §1

Another assay deals with SUV39H2 (Homo sapiens (Human), UniProt Q9H5I1). Conditions: read-out: IC50 (μM) Suv 39H2 assay.
Sequence of SUV39H2 (Q9H5I1 whole entry): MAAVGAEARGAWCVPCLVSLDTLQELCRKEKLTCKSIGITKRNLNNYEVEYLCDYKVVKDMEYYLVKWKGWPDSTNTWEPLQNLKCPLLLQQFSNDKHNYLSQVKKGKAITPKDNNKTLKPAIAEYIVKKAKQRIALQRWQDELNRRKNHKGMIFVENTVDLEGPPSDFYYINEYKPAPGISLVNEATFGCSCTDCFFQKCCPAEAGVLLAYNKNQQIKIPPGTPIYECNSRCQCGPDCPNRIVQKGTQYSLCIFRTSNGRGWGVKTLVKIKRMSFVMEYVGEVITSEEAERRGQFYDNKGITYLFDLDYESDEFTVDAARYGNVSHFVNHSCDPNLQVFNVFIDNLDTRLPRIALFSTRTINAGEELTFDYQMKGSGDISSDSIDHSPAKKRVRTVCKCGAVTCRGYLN
Setting [1] is: A549 cells, Cell Counting Kit-8, 72 hours.
Where [2] appears, read: HFL1 cells, Cell Counting Kit-8, 72 hours.
The mark [3] stands for this setting: CCD-18Co cells, Cell Counting Kit-8, 72 hours.
Setting [4] is: HCT-116 cells, Cell Counting Kit-8, 72 hours.

One may read the IC50 as the concentration that inhibits the measured activity by half. With `COc1cc(OC)c(-c2cn3ccc(N4CC[C@@H](N)C4)nc3n2)cc1Cl` [Example 55, (R)-1-(2-(5-Chloro-2,4-dimethoxyphenyl)imidazo[1,2-a]pyrimidin-7-yl)pyrrolidin-3-amine hydrochloride], the IC50 in the assay with A549 (A549, 72 h) came to 12 µM; in the assay with HFL1 (HFL1, 72 h), 4.8 µM; with CCD-18Co (CCD-18Co, 72 h) it was 14 µM; with HCT-116 (HCT-116, 72 h), 10 µM; at SUV39H2 it was 0.0262 µM.

With `COc1cc(OC)c(-c2cn3ccc(N4CC[C@H](NC(=O)OC(C)(C)C)C4)nc3n2)cc1Cl` [Example 56, (S)-tert-butyl (1-(2-(5-chloro-2,4-dimethoxyphenyl)imidazo[1,2-a]-pyrimidin-7-yl)pyrrolidin-3-yl)carbamate], the IC50 in the assay on A549 (setting [1]) was 7.5 µM; in the assay with HFL1 (setting [2]), 5.7 µM; with CCD-18Co (setting [3]), 7 µM; in the assay with HCT-116 (setting [4]) it was 7 µM; at SUV39H2 (enzyme assay) it was 0.0168 µM.

`COc1cc(OC)c(-c2cn3ccc(N4CC[C@@H](NC(=O)OC(C)(C)C)C4)nc3n2)cc1Cl` [Example 57, (R)-tert-Butyl (1-(2-(5-chloro-2,4-dimethoxyphenyl)imidazo[1,2-a]pyrimidin-7-yl)-pyrrolidin-3-yl)carbamate]: the IC50 turned out to be 7.1 µM in the assay on A549 (setting [1]); 4 µM in the assay with HFL1 (setting [2]); 4.8 µM in the assay on CCD-18Co (setting [3]); 7.2 µM in the assay with HCT-116 (setting [4]); 0.0108 µM on SUV39H2 (enzyme assay).

`COc1cc(OC)c(-c2cn3ccc(N4CC[C@H](N)C4)nc3n2)cc1Cl` [Example 58, (S)-1-(2-(5-chloro-2,4-dimethoxyphenyl)imidazo[1,2-a]pyrimidin-7-yl)-pyrrolidin-3-amine hydrochloride]: the IC50 in the assay on A549 (A549, 72 h) is 14 µM; in the assay with HFL1 (HFL1, 72 h), 6.2 µM; in the assay on CCD-18Co (CCD-18Co, 72 h) it was 13 µM; in the assay on HCT-116 (HCT-116, 72 h) it was 9.4 µM; on SUV39H2 it was 0.0296 µM.

In the case of `COc1cc(OC(C)C)c(-c2cn3ccc(N4CC[C@H](N)C4)cc3n2)cc1Br` [Example 59, (S)-1-(2-(5-bromo-2-isopropoxy-4-methoxyphenyl)imidazo[1,2-a]pyridin-7-yl)pyrrolidin-3-amine hydrochloride], the IC50 is 3.4 µM in the assay on A549 (A549, 72 h); 1.8 µM in the assay on HFL1 (HFL1, 72 h); 3.7 µM in the assay on CCD-18Co (CCD-18Co, 72 h); 2.6 µM with HCT-116 (HCT-116, 72 h); 0.0112 µM at SUV39H2.

In the case of `COc1cc(OC)c(-c2cn3ccc(N4CCC(NC(=O)CCNC(=O)OC(C)(C)C)C4)nc3n2)cc1Br` (stereo not drawn) [Example 65], the IC50 in the assay on A549 (setting [1]) is 28 µM; with HFL1 (setting [2]) it was 27 µM; with CCD-18Co (setting [3]), 26 µM; with HCT-116 (setting [4]), 17 µM; on SUV39H2 (enzyme assay), 0.014 µM.

As to `COc1cc(OC)c(-c2cn3ccc(N4CCC(CCN)CC4)nc3n2)cc1Cl` [Example 67], the IC50 worked out at 12 µM in the assay on A549 (setting [1]); 9.6 µM in the assay with HFL1 (setting [2]); 13 µM in the assay with CCD-18Co (setting [3]); 13 µM in the assay with HCT-116 (setting [4]); 0.0216 µM at SUV39H2 (enzyme assay).

Turning to `COc1cc(OC)c(-c2cn3ccc(NCCN4CCOCC4)cc3n2)cc1Cl` [Example 70, 2-(5-chloro-2,4-dimethoxyphenyl)-N-(2-morpholinoethyl)imidazo[1,2-a]pyridine-7-amine], the IC50 in the assay on A549 (setting [1]) was 14 µM; with HFL1 (setting [2]), 8.4 µM; in the assay with CCD-18Co (setting [3]) it was 14 µM; with HCT-116 (setting [4]) it was 10 µM; on SUV39H2 (enzyme assay) it was 0.0165 µM.

Turning to `COc1cc(OC)c(-c2cn3ccc(N4CCC(N)C4)cc3n2)cc1C#N` (stereo not drawn) [Example 73, 5-[7-(3-aminopyrrolidin-1-yl)imidazo[1,2-a]pyridin-2-yl]-2,4-dimethoxybenzonitrile], the IC50 was found to be 2.3 µM in the assay on A549 (setting [1]); 1.5 µM in the assay on HFL1 (setting [2]); 5.6 µM with CCD-18Co (setting [3]); 1.5 µM in the assay on HCT-116 (setting [4]); 0.0112 µM on SUV39H2 (enzyme assay).

As for `COc1cc(OC)c(-c2cn3ccc(N4CCC(NC(=O)OC(C)(C)C)C4)nc3n2)cc1C#N` (stereo not drawn) [Example 74, tert-butyl (1-(2-(5-cyano-2,4-dimethoxyphenyl)imidazo[1,2-a]pyrimidin-7-yl)pyrrolidin-3-yl) carbamate], the IC50 amounted to 8.5 µM in the assay on A549 (setting [1]); 3.9 µM in the assay with HFL1 (setting [2]); 6.4 µM in the assay on CCD-18Co (setting [3]); 8.1 µM with HCT-116 (setting [4]); 0.0303 µM at SUV39H2 (enzyme assay).

Consider `COc1cc(OC)c(-c2cn3ccc(NCCNC(C)=O)cc3n2)cc1Cl` [Example 77, N-(2-((2-(5-chloro-2,4-dimethoxyphenyl)imidazo[1,2-a]pyridin-7-yl)amino)ethyl)acetamide], for which the IC50 in the assay with A549 (setting [1]) is 30 µM; in the assay with HFL1 (setting [2]) it was 15 µM; in the assay with CCD-18Co (setting [3]), 31 µM; in the assay on HCT-116 (setting [4]), 21 µM; at SUV39H2 (enzyme assay), 0.0101 µM.

As to `COc1cc(OC)c(-c2cn3ccc(N4CCOCC4)nc3n2)cc1Cl` [Example 79, 4-(2-(5-chloro-2,4-dimethoxyphenyl)imidazo[1,2-a]pyrimidin-7-yl)-morpholine hydrobromide], the concentration for half-maximal inhibition (IC50) in the assay with A549 (setting [1]) amounted to 21 µM; in the assay with HFL1 (setting [2]), 15 µM; in the assay with CCD-18Co (setting [3]), 22 µM; in the assay on HCT-116 (setting [4]), 21 µM; on SUV39H2 (enzyme assay), 0.0344 µM.

Regarding `COc1cc(OC)c(-c2cn3cc(NCCN)ccc3n2)cc1Cl` [Example 81, N^1-(2-(5-chloro-2,4-dimethoxyphenyl)imidazo[1,2-a]pyridin-6-yl)ethane-1,2-diamine], the IC50 came to 13 µM in the assay with A549 (setting [1]); 5.6 µM in the assay on HFL1 (setting [2]); 11 µM with CCD-18Co (setting [3]); 11 µM in the assay on HCT-116 (setting [4]); 0.0179 µM at SUV39H2 (enzyme assay).

For the compound `COc1cc(OC)c(-c2cn3ccc(NCCN(C)C)cc3n2)cc1Cl` [Example 83, N^1-(2-(5-chloro-2,4-dimethoxyphenyl)imidazo[1,2-a]pyridin-7-yl)-N^2,N^2-dimethylethane-1,2-diamine], the IC50 in the assay with A549 (A549, 72 h) was 5.5 µM; with HFL1 (HFL1, 72 h), 2.2 µM; in the assay on CCD-18Co (CCD-18Co, 72 h), 7.1 µM; in the assay on HCT-116 (HCT-116, 72 h) it was 6.7 µM; on SUV39H2 (enzyme assay), 0.0373 µM.

`COc1cc(OCC2CC2)c(-c2cn3ccc(N4CCOCC4)cc3n2)cc1Cl` [Example 84, 4-(2-(5-chloro-2-(cyclopropylmethoxy)-4-methoxyphenyl)imidazo-[1,2-a]pyridin-7-yl)morpholine]: the IC50 was found to be 4.6 µM with A549 (setting [1]); 3.2 µM in the assay with HFL1 (setting [2]); 4.3 µM in the assay on CCD-18Co (setting [3]); 3.8 µM in the assay on HCT-116 (setting [4]); 0.0138 µM at SUV39H2 (enzyme assay).

As to `COc1cc(OCCCN(C)C)c(-c2cn3ccc(N4CCOCC4)cc3n2)cc1Cl` [Example 85, 3-(4-chloro-5-methoxy-2-(7-morpholinoimidazo[1,2-a]pyridin-2-yl)-phenoxy)-N,N-dimethylpropan-1-amine], the IC50 in the assay with A549 (setting [1]) was found to be 8.7 µM; with HFL1 (setting [2]), 3.5 µM; in the assay on CCD-18Co (setting [3]), 7.9 µM; with HCT-116 (setting [4]) it was 9 µM; at SUV39H2 (enzyme assay) it was 0.0338 µM.

For the compound `COc1cc(OC)c(-c2cn3ccc(N4CCOCC4)cc3n2)cc1C` [Example 86, 4-(2-(2,4-dimethoxy-5-methylphenyl)imidazo[1,2-a]pyridin-7-yl)morpholine], the IC50 in the assay with A549 (setting [1]) came to 14 µM; in the assay with HFL1 (setting [2]) it was 8 µM; in the assay on CCD-18Co (setting [3]) it was 13 µM; in the assay on HCT-116 (setting [4]) it was 14 µM; on SUV39H2 (enzyme assay), 0.0207 µM.

In the case of `COc1cc(OC)c(-c2cn3ccc(N4CCOCC4)cc3n2)cc1F` [Example 87, 4-(2-(5-fluoro-2,4-dimethoxyphenyl)imidazo[1,2-a]pyridin-7-yl)morpholine hydrobromide], the IC50 with A549 (setting [1]) is 3.3 µM; in the assay with HFL1 (setting [2]), 4 µM; in the assay with CCD-18Co (setting [3]) it was 5.6 µM; in the assay with HCT-116 (setting [4]) it was 2.3 µM; at SUV39H2 (enzyme assay) it was 0.032 µM.
